# Like-named read-outs stand apart in the source and are kept apart here.
# Assays:
# [1] = 4 weeks, liquid chromatography
# Method: The experimental conditions are as follows:
# Detector: Ultraviolet absorptiometer (wave length: 220 nm)
# Column: A stainless steel tube of 6 mm ID and 15 cm length being packed with octadecylated silica gel of […] in particle size designed for use in liquid chromatograph.
# Mobile phase: As prepared by dissolving 0.4 g of crystalline sodium dihydrogenphosphate and 0.3 g of sodium chloride in 50 ml of water, and adding 500 ml of methanol and 450 ml of acetonitrile, followed by addition of phosphoric acid to adjust to pH 4.0.
# Flow rate: As regulated so that the retention time may be about 12 min.
# [2] = biological target: T1, elastase originated from human white blood cells (Homo sapiens, UniProt P08246); assay: Elastase inhibitory activity (fluorogenic synthetic substrate); format: biochemical
# T1 construct: elastase originated from human white blood cells; from tissue; host or cells: human white blood cells
# T1 sequence (P08246 30-247 limits assumed): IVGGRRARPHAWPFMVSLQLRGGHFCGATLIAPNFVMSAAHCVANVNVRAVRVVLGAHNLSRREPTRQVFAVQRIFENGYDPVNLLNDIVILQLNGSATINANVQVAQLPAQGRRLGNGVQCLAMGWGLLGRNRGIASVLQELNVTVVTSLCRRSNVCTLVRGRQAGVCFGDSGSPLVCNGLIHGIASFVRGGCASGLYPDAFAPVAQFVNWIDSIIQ
# Description: are the reversibly extensible, highly elastic protein that is principal constituent of elastic fibers to maintain the extensibility and elasticity of the skin. […] are degraded and synthesized in the sustainable manner, thus acting to maintain the extensibility and elasticity of the skin, but may lose their extensibility and elasticity, when the rate of their degradation by elastase owing to aging, etc. exceeds the rate of their synthesis. Accordingly, inhibition of the elastase enables the skin to maintain its extensibility and elasticity. Such being the case, the Compound of the present invention is tested for its elastase inhibitory activity in the following manner: […] Testing method […]
Compound,Residual ratio ([1]; storage at 4° C.) [%],Residual ratio ([1]; storage at 40° C.) [%],Residual ratio ([1]; storage at 50° C.) [%],"Elastase inhibitory activity (in words) ([2]; 0.01 to 1 mM, Table 2)",Ratio of elastase inhibition ([2]; test specimen 0.01 mM),Ratio of elastase inhibition ([2]; test specimen 0.1 mM),Ratio of elastase inhibition ([2]; test specimen 1 mM)
"CCO.Cc1c(C)c2c(c(C)c1OC(=O)/C=C\C(=O)OC1=C(O)[C@@H]([C@@H](O)CO)OC1=O)CCC(C)(CCCC(C)CCCC(C)CCCC(C)C)O2 (stereo partly drawn) [Reference Example 1, L-Ascorbic acid-2-O-maleic acid-α-tocopherol diester.ethanol adduct]",99.7,90.9,81.7,–,–,–,–
L-Ascorbic acid-2-O-maleic acid-α-tocopherol diester.1-propanol adduct [Example 1],–,–,–,remarkable elastase inhibitory activity,4,19,71

# From patent US6828348B2, “L-ascorbic acid-2-o-maleic acid-a-tocopherol diester 1-propanol adduct and process for producing the same” (Senju Pharmaceutical Co., Ltd., priority 2002, dated 2004)
